The source made the active and inactive calls. The calls are words filed in the database; no cut-off is given here.
Columns and labels:
MDA-MB-231 [1] = assay: Antimigratory activity in human ER-negative MDA-MB-231 cells assessed as cell migration level at 1 uM after 24 hrs by scratch assay; type: functional
MDA-MB-231 [2] = assay: Inhibition of MMP9 expression in human ER-negative MDA-MB-231 cells after 24 hrs by western blotting; type: functional, cell-based
MDA-MB-231 [3] = assay: Inhibition of cell invasion in human ER-negative MDA-MB-231 cells after 24 hrs by Boyden chamber transwell invasion assay; type: functional, cell-based
MDA-MB-231 [4] = assay: Antimigratory activity in human ER-negative MDA-MB-231 cells assessed as cell migration level at 0.5 uM after 24 hrs by scratch assay; type: functional
MCF7 [5] = assay: Inhibition of caveolin-1 expression in human ER-positive MCF7 cells after 24 hrs by western blotting; type: functional, cell-based
MCF7 [6] = assay: Inhibition of MMP9 expression in human ER-positive MCF7 cells after 24 hrs by western blotting; type: functional, cell-based
MDA-MB-231 [7] = assay: Inhibition of c-Myc expression in human ER-negative MDA-MB-231 cells after 24 hrs by western blotting; type: functional, cell-based
MDA-MB-231 [8] = assay: Inhibition of caveolin-1 expression in human ER-negative MDA-MB-231 cells after 24 hrs by western blotting; type: functional, cell-based
MCF7 [9] = assay: Inhibition of c-Myc expression in human ER-positive MCF7 cells after 24 hrs by western blotting; type: functional, cell-based
MDA-MB-231 [10] = assay: Cytotoxicity against human ER-negative MDA-MB-231 cells assessed as cell viability after 72 hrs by MTT assay; type: functional, cell-based; details: for IC50: MDA-MB-231, 72 h
MCF7 [11] = assay: Cytotoxicity against human ER-positive MCF7 cells assessed as cell viability after 72 hrs by MTT assay; type: functional, cell-based
MCF7 [12] = assay: Inhibition of c-Myc expression in human ER-positive MCF7 cells at 10 and 25 uM after 24 hrs by western blotting; type: functional, cell-based
MCF7 [13] = assay: Inhibition of MMP9 expression in human ER-positive MCF7 cells at 10 and 25 uM after 24 hrs by western blotting; type: functional, cell-based
MDA-MB-231 [14] = assay: Inhibition of caveolin-1 expression in human ER-negative MDA-MB-231 cells at 10 and 25 uM after 24 hrs by western blotting; type: functional, cell-based
MDA-MB-231 [15] = assay: Inhibition of MMP9 expression in human ER-negative MDA-MB-231 cells at 10 and 25 uM after 24 hrs by western blotting; type: functional, cell-based
MDA-MB-231 [16] = assay: Inhibition of c-Myc expression in human ER-negative MDA-MB-231 cells at 10 and 25 uM after 24 hrs by western blotting; type: functional, cell-based
MCF7 [17] = assay: Inhibition of caveolin-1 expression in human ER-positive MCF7 cells at 10 and 25 uM after 24 hrs by western blotting; type: functional, cell-based
[18] = Homo sapiens, MCF7, 72 h, read-out: IC50

Compound	IC50 (MDA-MB-231 [10])	IC50 (MCF7 [11]; [18])	other results
COc1ccc(/C(=C(/CCN)c2ccccc2)c2ccccc2)cc1			Activity (MDA-MB-231 [1]): 25%; inhibition (MDA-MB-231 [2]): Dose-dependent effect; inhibition (MDA-MB-231 [3]): Dose-dependent effect; Activity (MDA-MB-231 [4]): 60%; inhibition (MCF7 [5]): Dose-dependent effect; inhibition (MCF7 [6]): Dose-dependent effect; inhibition (MDA-MB-231 [7]): Dose-dependent effect; inhibition (MDA-MB-231 [8]): Dose-dependent effect; inhibition (MCF7 [9]): Dose-dependent effect
COc1ccc(/C(=C(/CCNC(=O)NCc2ccccc2)c2ccccc2)c2ccccc2)cc1	> 50 µM	> 50 µM	
COc1ccc(/C(=C(/CCNC(=O)N2CCCC2)c2ccccc2)c2ccccc2)cc1	> 50 µM	> 50 µM	
COc1ccc(/C(=C(/CCCl)c2ccccc2)c2ccccc2)cc1	> 50 µM	> 50 µM	
COc1ccc(/C(=C(/CCNC(=O)C(=O)N2CCOCC2)c2ccccc2)c2ccccc2)cc1	20 µM	43.4 µM	
COc1ccc(/C(=C(/CCNC(=O)Oc2ccccc2)c2ccccc2)c2ccccc2)cc1			Activity (MDA-MB-231 [10]): inactive; IC50 (MCF7 [11]; mcf7): Not Active
COc1ccc(/C(=C(/CCNC(=O)N2CCOCC2)c2ccccc2)c2ccccc2)cc1	42.8 µM	> 50 µM	
COc1ccc(/C(=C(/CCNC(=O)NC2CCCCC2)c2ccccc2)c2ccccc2)cc1	> 50 µM	37.2 µM	
OCCOc1ccc(/C(=C(/CCCl)c2ccccc2)c2ccccc2)cc1 [OSPEMIFENE]	> 50 µM	> 50 µM	Activity (MDA-MB-231 [1]): inactive
COc1ccc(/C(=C(/CCNC(=O)C(=O)N2CCCC2)c2ccccc2)c2ccccc2)cc1	48.6 µM	> 50 µM	
CCOC(=O)C(=O)NCC/C(=C(\c1ccccc1)c1ccc(OC)cc1)c1ccccc1	> 50 µM	> 50 µM	
COc1ccc(/C(=C(/CCNC(=O)C(=O)NCc2ccccc2)c2ccccc2)c2ccccc2)cc1	11.5 µM	> 50 µM	Activity (MDA-MB-231 [1]): inactive; inhibition (MCF7 [12]): Active; inhibition (MCF7 [13]): Active; inhibition (MDA-MB-231 [14]): inactive; inhibition (MDA-MB-231 [15]): Active; inhibition (MDA-MB-231 [16]): Active; inhibition (MCF7 [17]): inactive
COc1ccc(/C(=C(/CCNC(=O)C(=O)N2CCCCC2)c2ccccc2)c2ccccc2)cc1	> 50 µM	> 50 µM	
COc1ccc(/C(=C(/CCN=[N+]=[N-])c2ccccc2)c2ccccc2)cc1			Activity (MDA-MB-231 [10]): inactive; IC50 (MCF7 [11]; mcf7): Not Active
COc1ccc(/C(=C(/CCNC(=O)N2CCCCC2)c2ccccc2)c2ccccc2)cc1	> 50 µM	> 50 µM	
COc1ccc(/C(=C(/CCNC(=O)C(=O)NC2CCCCC2)c2ccccc2)c2ccccc2)cc1	12.2 µM	12.1 µM	Activity (MDA-MB-231 [1]): inactive; inhibition (MCF7 [12]): Active; inhibition (MCF7 [13]): Active; inhibition (MDA-MB-231 [14]): inactive; inhibition (MDA-MB-231 [15]): Active; inhibition (MDA-MB-231 [16]): Active; inhibition (MCF7 [17]): inactive
CCN(CC)C(=O)NCC/C(=C(\c1ccccc1)c1ccc(OC)cc1)c1ccccc1	40.7 µM	> 50 µM	

From ChEMBL document CHEMBL3785016, “Design, synthesis, and anti-breast cancer evaluation of new triarylethylene analogs bearing short alkyl- and polar amino-/amido-ethyl chains” (Bioorg Med Chem Lett, 2016)
